{"source": "PubChem BioAssay AID2060910", "about": "(Molecular Pharmacology Branch, DTP, NCI, 2025)", "tested_on": "242566-281-R-J2-PDC complex spheroid viability", "test": "Anticancer human tumor 242566-281-R-J2-PDC patient-derived pancreatic carcinoma cell line growth inhibition [RAS]", "settings": "for pIC50: curve of first compound; for viability, T/C: stronger effect = lower value", "summary_of_the_method": "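Multi-cell-type spheroids: tumor cells plus HUVEC endothelial cells and mesenchymal stem cells. RAS-pathway inhibitors were combined with targeted agents, each dosed in half-log steps down from clinical Cmax, or from 10 microM when Cmax was unknown.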", "note": "pIC50: −log10 of the molar value.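 Also: spheroids exposed to compound for 7 days before readout.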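 For viability, T/C in this document: 100% = DMSO vehicle control wells.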"}
{"smiles": "C=CC(=O)Nc1cc(Nc2nccc(-c3cn(C)c4ccccc34)n2)c(OC)cc1N(C)CCN(C)C", "note": "+ C=CC(=O)N1CCN(c2nc(OCC3CCCN3C)nc3c(F)c(-c4nc(N)cc(C)c4C(F)(F)F)c(Cl)cc23)C(C)C1", "values": [{"measurement": "pIC50", "setting": "second compound 0.00316 µM", "value": "< 6.00"}, {"measurement": "pIC50", "setting": "second compound 0.01 µM", "value": "< 6.00"}, {"measurement": "pIC50", "setting": "second compound 0.0316 µM", "value": "< 6.00"}, {"measurement": "pIC50", "setting": "second compound 0.1 µM", "value": "< 6.00"}, {"measurement": "pIC50", "setting": "second compound 0.316 µM", "value": "< 6.00"}, {"measurement": "pIC50", "setting": "second compound 1 µM", "value": "< 6.00"}, {"measurement": "viability, T/C", "setting": "second compound 0.00316 µM, first compound 0.00316 µM", "value": 95.1, "unit": "%"}, {"measurement": "viability, T/C", "setting": "second compound 0.00316 µM, first compound 0.01 µM", "value": 133, "unit": "%"}, {"measurement": "viability, T/C", "setting": "second compound 0.00316 µM, first compound 0.0316 µM", "value": 82.7, "unit": "%"}, {"measurement": "viability, T/C", "setting": "second compound 0.00316 µM, first compound 0.1 µM", "value": 74.5, "unit": "%"}, {"measurement": "viability, T/C", "setting": "second compound 0.00316 µM, first compound 0.316 µM", "value": 80.5, "unit": "%"}, {"measurement": "viability, T/C", "setting": "second compound 0.00316 µM, first compound 1 µM", "value": 85.7, "unit": "%"}, {"measurement": "viability, T/C", "setting": "second compound 0.01 µM, first compound 0.00316 µM", "value": 97.6, "unit": "%"}, {"measurement": "viability, T/C", "setting": "second compound 0.01 µM, first compound 0.01 µM", "value": 138, "unit": "%"}, {"measurement": "viability, T/C", "setting": "second compound 0.01 µM, first compound 0.0316 µM", "value": 86.7, "unit": "%"}, {"measurement": "viability, T/C", "setting": "second compound 0.01 µM, first compound 0.1 µM", "value": 93.4, "unit": "%"}, {"measurement": "viability, T/C", "setting": "second compound 0.01 µM, first compound 0.316 µM", "value": 86.1, "unit": "%"}, {"measurement": "viability, T/C", "setting": "second compound 0.01 µM, first compound 1 µM", "value": 84.8, "unit": "%"}, {"measurement": "viability, T/C", "setting": "second compound 0.0316 µM, first compound 0.00316 µM", "value": 109, "unit": "%"}, {"measurement": "viability, T/C", "setting": "second compound 0.0316 µM, first compound 0.01 µM", "value": 121, "unit": "%"}, {"measurement": "viability, T/C", "setting": "second compound 0.0316 µM, first compound 0.0316 µM", "value": 90.7, "unit": "%"}, {"measurement": "viability, T/C", "setting": "second compound 0.0316 µM, first compound 0.1 µM", "value": 91, "unit": "%"}, {"measurement": "viability, T/C", "setting": "second compound 0.0316 µM, first compound 0.316 µM", "value": 79.8, "unit": "%"}, {"measurement": "viability, T/C", "setting": "second compound 0.0316 µM, first compound 1 µM", "value": 78.3, "unit": "%"}, {"measurement": "viability, T/C", "setting": "second compound 0.1 µM, first compound 0.00316 µM", "value": 105, "unit": "%"}, {"measurement": "viability, T/C", "setting": "second compound 0.1 µM, first compound 0.01 µM", "value": 136, "unit": "%"}, {"measurement": "viability, T/C", "setting": "second compound 0.1 µM, first compound 0.0316 µM", "value": 103, "unit": "%"}, {"measurement": "viability, T/C", "setting": "second compound 0.1 µM, first compound 0.1 µM", "value": 95.4, "unit": "%"}, {"measurement": "viability, T/C", "setting": "second compound 0.1 µM, first compound 0.316 µM", "value": 78.9, "unit": "%"}, {"measurement": "viability, T/C", "setting": "second compound 0.1 µM, first compound 1 µM", "value": 76.8, "unit": "%"}, {"measurement": "viability, T/C", "setting": "second compound 0.316 µM, first compound 0.00316 µM", "value": 104, "unit": "%"}, {"measurement": "viability, T/C", "setting": "second compound 0.316 µM, first compound 0.01 µM", "value": 121, "unit": "%"}, {"measurement": "viability, T/C", "setting": "second compound 0.316 µM, first compound 0.0316 µM", "value": 96.4, "unit": "%"}, {"measurement": "viability, T/C", "setting": "second compound 0.316 µM, first compound 0.1 µM", "value": 79.2, "unit": "%"}, {"measurement": "viability, T/C", "setting": "second compound 0.316 µM, first compound 0.316 µM", "value": 95.3, "unit": "%"}, {"measurement": "viability, T/C", "setting": "second compound 0.316 µM, first compound 1 µM", "value": 87.2, "unit": "%"}, {"measurement": "viability, T/C", "setting": "second compound 1 µM, first compound 0.00316 µM", "value": 108, "unit": "%"}, {"measurement": "viability, T/C", "setting": "second compound 1 µM, first compound 0.01 µM", "value": 129, "unit": "%"}, {"measurement": "viability, T/C", "setting": "second compound 1 µM, first compound 0.0316 µM", "value": 81, "unit": "%"}, {"measurement": "viability, T/C", "setting": "second compound 1 µM, first compound 0.1 µM", "value": 112, "unit": "%"}, {"measurement": "viability, T/C", "setting": "second compound 1 µM, first compound 0.316 µM", "value": 83.7, "unit": "%"}, {"measurement": "viability, T/C", "setting": "second compound 1 µM, first compound 1 µM", "value": 89.8, "unit": "%"}]}
{"smiles": "O=C(c1ccc(F)c(F)c1Nc1ccc(I)cc1F)N1CC(O)([C@@H]2CCCCN2)C1", "note": "+ CCn1c(-c2cccnc2C(C)OC)c2c3cc(ccc31)N1CCOC(CC(NC(=O)C(C(C)C)N(C)C(=O)C3(F)CCN(C(=O)C#CC(C)(C)N(C)C)CC3)C(=O)N3CCCC(N3)C(=O)OCC(C)(C)C2)C1", "values": [{"measurement": "pIC50", "setting": "second compound 0.000949 µM", "value": 7.02}, {"measurement": "pIC50", "setting": "second compound 0.003 µM", "value": 6.91}, {"measurement": "pIC50", "setting": "second compound 0.00949 µM", "value": 6.94}, {"measurement": "pIC50", "setting": "second compound 0.03 µM", "value": 6.92}, {"measurement": "pIC50", "setting": "second compound 0.0949 µM", "value": 7.04}, {"measurement": "pIC50", "setting": "second compound 0.3 µM", "value": 7.28}, {"measurement": "viability, T/C", "setting": "second compound 0.000949 µM, first compound 0.00316 µM", "value": 92.3, "unit": "%"}, {"measurement": "viability, T/C", "setting": "second compound 0.000949 µM, first compound 0.01 µM", "value": 90.8, "unit": "%"}, {"measurement": "viability, T/C", "setting": "second compound 0.000949 µM, first compound 0.0316 µM", "value": 51.1, "unit": "%"}, {"measurement": "viability, T/C", "setting": "second compound 0.000949 µM, first compound 0.1 µM", "value": 53.2, "unit": "%"}, {"measurement": "viability, T/C", "setting": "second compound 0.000949 µM, first compound 0.316 µM", "value": 38.9, "unit": "%"}, {"measurement": "viability, T/C", "setting": "second compound 0.000949 µM, first compound 1 µM", "value": 19.5, "unit": "%"}, {"measurement": "viability, T/C", "setting": "second compound 0.003 µM, first compound 0.00316 µM", "value": 87.2, "unit": "%"}, {"measurement": "viability, T/C", "setting": "second compound 0.003 µM, first compound 0.01 µM", "value": 77.5, "unit": "%"}, {"measurement": "viability, T/C", "setting": "second compound 0.003 µM, first compound 0.0316 µM", "value": 65.7, "unit": "%"}, {"measurement": "viability, T/C", "setting": "second compound 0.003 µM, first compound 0.1 µM", "value": 52.9, "unit": "%"}, {"measurement": "viability, T/C", "setting": "second compound 0.003 µM, first compound 0.316 µM", "value": 38.7, "unit": "%"}, {"measurement": "viability, T/C", "setting": "second compound 0.003 µM, first compound 1 µM", "value": 18.9, "unit": "%"}, {"measurement": "viability, T/C", "setting": "second compound 0.00949 µM, first compound 0.00316 µM", "value": 101, "unit": "%"}, {"measurement": "viability, T/C", "setting": "second compound 0.00949 µM, first compound 0.01 µM", "value": 69, "unit": "%"}, {"measurement": "viability, T/C", "setting": "second compound 0.00949 µM, first compound 0.0316 µM", "value": 78.5, "unit": "%"}, {"measurement": "viability, T/C", "setting": "second compound 0.00949 µM, first compound 0.1 µM", "value": 51.1, "unit": "%"}, {"measurement": "viability, T/C", "setting": "second compound 0.00949 µM, first compound 0.316 µM", "value": 33.7, "unit": "%"}, {"measurement": "viability, T/C", "setting": "second compound 0.00949 µM, first compound 1 µM", "value": 21, "unit": "%"}, {"measurement": "viability, T/C", "setting": "second compound 0.03 µM, first compound 0.00316 µM", "value": 93.3, "unit": "%"}, {"measurement": "viability, T/C", "setting": "second compound 0.03 µM, first compound 0.01 µM", "value": 89.4, "unit": "%"}, {"measurement": "viability, T/C", "setting": "second compound 0.03 µM, first compound 0.0316 µM", "value": 76.9, "unit": "%"}, {"measurement": "viability, T/C", "setting": "second compound 0.03 µM, first compound 0.1 µM", "value": 54.9, "unit": "%"}, {"measurement": "viability, T/C", "setting": "second compound 0.03 µM, first compound 0.316 µM", "value": 29.3, "unit": "%"}, {"measurement": "viability, T/C", "setting": "second compound 0.03 µM, first compound 1 µM", "value": 22.4, "unit": "%"}, {"measurement": "viability, T/C", "setting": "second compound 0.0949 µM, first compound 0.00316 µM", "value": 97.9, "unit": "%"}, {"measurement": "viability, T/C", "setting": "second compound 0.0949 µM, first compound 0.01 µM", "value": 88.1, "unit": "%"}, {"measurement": "viability, T/C", "setting": "second compound 0.0949 µM, first compound 0.0316 µM", "value": 68, "unit": "%"}, {"measurement": "viability, T/C", "setting": "second compound 0.0949 µM, first compound 0.1 µM", "value": 52, "unit": "%"}, {"measurement": "viability, T/C", "setting": "second compound 0.0949 µM, first compound 0.316 µM", "value": 26.5, "unit": "%"}, {"measurement": "viability, T/C", "setting": "second compound 0.0949 µM, first compound 1 µM", "value": 22.1, "unit": "%"}, {"measurement": "viability, T/C", "setting": "second compound 0.3 µM, first compound 0.00316 µM", "value": 87, "unit": "%"}, {"measurement": "viability, T/C", "setting": "second compound 0.3 µM, first compound 0.01 µM", "value": 75.3, "unit": "%"}, {"measurement": "viability, T/C", "setting": "second compound 0.3 µM, first compound 0.0316 µM", "value": 60.6, "unit": "%"}, {"measurement": "viability, T/C", "setting": "second compound 0.3 µM, first compound 0.1 µM", "value": 36.9, "unit": "%"}, {"measurement": "viability, T/C", "setting": "second compound 0.3 µM, first compound 0.316 µM", "value": 24.2, "unit": "%"}, {"measurement": "viability, T/C", "setting": "second compound 0.3 µM, first compound 1 µM", "value": 15.8, "unit": "%"}]}
